Measured values as given in publication PMC7188713, “Phase 1 study of napabucasin, a cancer stemness inhibitor, in patients with advanced solid tumors” (Cancer Chemotherapy and Pharmacology, 2020).

Columns and labels:
colorectal cancer = test system: colorectal cancer; set-up: method as in PMID 29397354; details: cited from earlier work
[1] = Phase 1 dose-escalation study: safety (DLT, MTD, adverse events); format: in vivo
Procedure: This Phase 1, open-label, dose-escalation study (3 + 3 design) was carried out at the National Cancer Center Hospital East in Japan. Patients received napabucasin 240 mg twice daily (BID) (Cohort 1), 480 mg BID (Cohort 2), or 720 mg BID (Cohort 3). Day 1 was defined as the day the first dose of napabucasin was administered. All patients were hospitalized until PK assessments were completed (Day 30), though patients were permitted to go/stay out during this period at the discretion of the investigators. […] Dose escalation would continue if no DLTs were observed, and if one of the first three patients experienced a DLT within the first cycle an additional three patients would be enrolled. Dose escalation would be halted if ≥ 2 of the first three patients (or ≥ 2 of the six patients, if additional patients were enrolled) experienced a DLT. If ≤ 1 of the patients in Cohort 3 (highest dose) experienced an observable DLT, then three additional patients were enrolled and would receive the highest dose level of napabucasin, and DLTs would be evaluated in the additional patients. Study treatment was given in 28-day cycles until disease progression or intolerable toxicity due to AEs.
Safety endpoints included AEs, drug-related AEs, vital signs, body weight, laboratory values, and 12-lead ECG. All details of AEs were recorded, including the severity of the event. The severity of AEs was classified according to CTCAE v4.0-JCOG. Napabucasin dose could be reduced or interrupted due to AEs if considered necessary by the investigators, and later reinstated if the AE recovered to Grade 2 or lower. It could also be permanently discontinued in patients who met the discontinuation criteria, which included AEs that rendered trial continuation difficult, aggravation of underlying disease, and withdrawal of consent. Body weight was measured at baseline and Day 29 of Cycle 2, and every 28 days in subsequent cycles. Vital signs were measured at baseline, Days 1, 2, 8, 15, and 22 of Cycle 1, Days 29, 36, 43, and 50 of Cycle 2, and every 28 days in subsequent cycles. 12-lead ECG was measured at baseline and Day 57 in Cycle 3, and every 28 days in subsequent cycles. Laboratory values were recorded at baseline, Days 8, 15, and 22 in Cycle 1, Days 29, 36, 43, and 50 in Cycle 2, and every 28 days in subsequent cycles.
The safety and antitumor activity (intention-to-treat [ITT]) analysis populations included all patients that received at least one dose of napabucasin. The DLT analysis population included all patients that received at least one dose of napabucasin with at least 80% compliance ([number of capsules actually ingested/number of capsules that should have been ingested per dose […]] × 100) during the DLT evaluation period, and those patients who experienced DLT during the evaluation period regardless of compliance. The PK population included all patients that received at least one dose of napabucasin and had plasma napabucasin concentration data for at least one-time point after the first dose of napabucasin.

[2] = all grades, all cohorts, 14 patients

CC(=O)c1cc2c(o1)C(=O)c1ccccc1C2=O [napabucasin]
Patients who achieved SD (colorectal cancer): 12% | MTD (maximum tolerated dose) ([1]; 28-day cycles, BID dosing): 1440 mg/day | Any drug-related adverse event, Grade 1 ([1]; Cohort 1, 480 mg/day, n = 3): 1 (33.3) Number of patients (%) | Drug-related abdominal pain lower (Grade 1) ([1]; Cohort 1, 480 mg/day, n = 3): 0 (0.0) Number of patients (%) | Drug-related anorexia, Grade 1 ([1]; Cohort 1, 480 mg/day, n = 3): 1 (33.3) Number of patients (%) | Drug-related anorexia, Grade 2 ([1]; Cohort 1, 480 mg/day, n = 3): 0 (0.0) Number of patients (%) | Drug-related anorexia, Grade 3 ([1]; Cohort 1, 480 mg/day, n = 3): 0 (0.0) Number of patients (%) | Drug-related diarrhea, Grade 1 ([1]; Cohort 1, 480 mg/day, n = 3): 1 (33.3) Number of patients (%) | Drug-related nausea (Grade 1) ([1]; Cohort 1, 480 mg/day, n = 3): 0 (0.0) Number of patients (%) | Drug-related rash (Grade 1) ([1]; Cohort 1, 480 mg/day, n = 3): 0 (0.0) Number of patients (%) | Drug-related urinary tract infection (Grade 1) ([1]; Cohort 1, 480 mg/day, n = 3): 0 (0.0) Number of patients (%) | Any drug-related adverse event, Grade 1 ([1]; Cohort 2, 960 mg/day, n = 4): 4 (100) Number of patients (%) | Drug-related abdominal pain lower (Grade 1) ([1]; Cohort 2, 960 mg/day, n = 4): 1 (25.0) Number of patients (%) | Drug-related anorexia, Grade 1 ([1]; Cohort 2, 960 mg/day, n = 4): 0 (0.0) Number of patients (%) | Drug-related anorexia, Grade 2 ([1]; Cohort 2, 960 mg/day, n = 4): 0 (0.0) Number of patients (%) | Drug-related anorexia, Grade 3 ([1]; Cohort 2, 960 mg/day, n = 4): 0 (0.0) Number of patients (%) | Drug-related diarrhea, Grade 1 ([1]; Cohort 2, 960 mg/day, n = 4): 3 (75.0) Number of patients (%) | Drug-related nausea (Grade 1) ([1]; Cohort 2, 960 mg/day, n = 4): 0 (0.0) Number of patients (%) | Drug-related rash (Grade 1) ([1]; Cohort 2, 960 mg/day, n = 4): 1 (25.0) Number of patients (%) | Drug-related urinary tract infection (Grade 1) ([1]; Cohort 2, 960 mg/day, n = 4): 1 (25.0) Number of patients (%) | Any drug-related adverse event, Grade 1 ([1]; Cohort 3, 1440 mg/day, n = 7): 4 (57.1) Number of patients (%) | Any drug-related adverse event, Grade 2 ([1]; Cohort 3, 1440 mg/day, n = 7): 1 (14.3) Number of patients (%) | Any drug-related adverse event, Grade 3 ([1]; Cohort 3, 1440 mg/day, n = 7): 1 (14.3) Number of patients (%) | Drug-related abdominal pain lower (Grade 1) ([1]; Cohort 3, 1440 mg/day, n = 7): 0 (0.0) Number of patients (%) | Drug-related anorexia, Grade 1 ([1]; Cohort 3, 1440 mg/day, n = 7): 0 (0.0) Number of patients (%) | Drug-related anorexia, Grade 2 ([1]; Cohort 3, 1440 mg/day, n = 7): 1 (14.3) Number of patients (%) | Drug-related anorexia, Grade 3 ([1]; Cohort 3, 1440 mg/day, n = 7): 1 (14.3) Number of patients (%) | Drug-related diarrhea, Grade 1 ([1]; Cohort 3, 1440 mg/day, n = 7): 4 (57.1) Number of patients (%) | Drug-related diarrhea, Grade 3 ([1]; Cohort 3, 1440 mg/day, n = 7): 1 (14.3) Number of patients (%) | Drug-related nausea (Grade 1) ([1]; Cohort 3, 1440 mg/day, n = 7): 4 (57.1) Number of patients (%) | Drug-related rash (Grade 1) ([1]; Cohort 3, 1440 mg/day, n = 7): 0 (0.0) Number of patients (%) | Drug-related urinary tract infection (Grade 1) ([1]; Cohort 3, 1440 mg/day, n = 7): 0 (0.0) Number of patients (%) | Initial onset of nausea, most frequently observed ([1]; after the first dose): 1 to 14 days | Drug-related nausea, number of patients ([1]; all cohorts, 14 patients): 4 n | Drug-related vomiting, number of patients ([1]; all cohorts, 14 patients): 3 n | Drug-related anorexia, number of patients [1, 2]: 3 n | Drug-related diarrhea, number of patients [1, 2]: 9 n | Any drug-related adverse event, Grade 1 ([1]; human, in vivo): 9 (64.3) Number of patients (%) | Any drug-related adverse event, Grade 2 ([1]; human, in vivo): 1 (7.1) Number of patients (%) | Any drug-related adverse event, Grade 3 ([1]; human, in vivo): 1 (7.1) Number of patients (%) | Drug-related abdominal pain lower (Grade 1) ([1]; human, in vivo): 1 (7.1) Number of patients (%) | Drug-related anorexia, Grade 1 ([1]; human, in vivo): 1 (7.1) Number of patients (%) | Drug-related anorexia, Grade 2 ([1]; human, in vivo): 1 (7.1) Number of patients (%) | Drug-related anorexia, Grade 3 ([1]; human, in vivo): 1 (7.1) Number of patients (%) | Drug-related diarrhea, Grade 1 ([1]; human, in vivo): 8 (57.1) Number of patients (%) | Drug-related diarrhea, Grade 3 ([1]; human, in vivo): 1 (7.1) Number of patients (%) | Drug-related nausea (Grade 1) ([1]; human, in vivo): 4 (28.6) Number of patients (%) | Drug-related rash (Grade 1) ([1]; human, in vivo): 1 (7.1) Number of patients (%) | Drug-related urinary tract infection (Grade 1) ([1]; human, in vivo): 1 (7.1) Number of patients (%) | Drug-related vomiting (Grade 1) ([1]; human, in vivo): 3 (21.4) Number of patients (%) | Initial onset of diarrhea and vomiting, most frequently observed ([1]; human, in vivo): 1 to 7 days | Patients who experienced drug-related AEs ([1]; human, in vivo): 11 patients | Patients with AEs reported ([1]; human, in vivo): 14 patients | Dose reductions due to AEs ([1]; in vivo): no dose reductions due to AEs | Patients with dose interruptions due to AEs ([1]; in vivo): five | Deaths due to AEs ([1]; n = 14): No patients died due to AEs
